From patent US5219825A, “Synergistic herbicidal compositions comprising herbicides which generate toxic oxygen radicals and chelating agents which inhibit their detoxification” (Yeda Research and Development Co., Ltd., priority 1986, dated 1993)

Legend:
[1] = tested on: Conyza bonariensis high herbicide requiring biotype; assay: Whole plant spray, visual rating; format: in vivo
Excerpt: (§1) Seeds of Conyza bonariensis were germinated and plants cultivated as outlined in Example 1. Other species were germinated in a similar mixture and treated at 10 days.
(§2) The commercial fungicides, maneb [manganese ethylene-bis(dithiocarbamate) (polymeric)] and zineb [zinc ethylene-bis (dithiocarbamate) (polymeric)] were used, they have similar structures and effects as DDC, but are blocked and act as chelate controls […] to clarify that a synergism would be due to the chelating effect of diethyldithiocarbamate. […] They could not chelate copper due to their being blocked.
(§3) ^a visual ratings (scored 1 day after treatment): 0 no damage to
(§4) slight burn; 1 moderate burn (may regenerate); 2 severe burn (will die)
(§5) Similarly, both the paraquat resistant and sensitive biotypes of Conyza bonariensis were treated with two other oxidant generating herbicides. Atrazine (of the triazine group) is the most widely used oxidant generating herbicides in agriculture. We used various dilutions of a commercial wettable powder (Atranex 50WP-Agan Chemicals) to which we added 0.5% DDC. The effects were scored 24 h later. […] We also tested to see whether acifluorfen, a nitro diphenyl ether herbicide would be synergized. It is generally agreed that light and oxygen are required for its action via oxidant damage. We sprayed a commercial formulation of acifluorfen (Blazer, Rohm and Haas) to which were added 0.25% Tween-20 detergent, with and without DDC. The effects were scored 24 h later.

[2] = tested on: Conyza bonariensis low herbicide requiring biotype; assay: Whole plant spray, visual rating; format: in vivo
Excerpt: as §1, §2, §3, §4, §5

[3] = tested on: isolated Asparagus sprengeri cells; assay: Chlorophyll loss in isolated cells (synergism at the cellular level); format: cell-based; conditions: for % of control chlorophyll: low light 305 μEin m^-2 s^-1
Method: Isolated cells offer an excellent rapid method of screening for phytotoxicity using a large number of potential chelators and synergists. Asparagus sprengeri cells were isolated from cladophylls of field grown plants using the procedure of Colman et al. (Can. J. Botany 57 1505, (1979)) except that the isolation, washing and culture buffer was 50 mM HEPES brought to pH 7.2 with KOH. The cladophylls were surface sterilized using 80% aqueous ethanol. After three centrifugations to remove broken cells, the cells were diluted to 10% packed volume and 0.75 ml were placed in each well of cluster dishes. The potential synergists in this example 0.02% w/v final concentration diethyldithiocarbamate (DDC) and an oxime of 4-octyl-2-acetyl-phenol (U.S. Pat. No. 4,215,219) which complex primarily with copper and di-2-ethylhexyl-phosphoric acid which complexes primarily with zinc (Flett, Chem and Ind. 17 706, (1977)) was placed with the herbicides atrazine and paraquat. All additions were made at 100 fold the final concentration of herbicide and synergist. Paraquat was dissolved in water and atrazine in methanol. The cluster dishes were incubated on a reciprocal shaker with a clear plastic bottom and illuminated from top and bottom with fluorescent lights emitting 135 μEin.m^-2 s^-1 (top) and 170 μEin.m^-2 s^-1 (bottom). The cells were kept mixed by the shaker and incubation was at room temperature. Incubation was stopped when there was visually obvious loss of chlorophyll due to treatments in a given experiment. The cells were removed to glass centrifugation tubes, centrifuged and the supernatant removed. One ml of 80% aqueous acetone was added to extract chlorophyll, the debris were sedimented by centrifugation and chlorophyll was spectrophotometrically determined at 645 and 663 nm according to Arnon (Plant Physiology 24 1, (1949)). […] In another experiment, a larger variety of chelating synergists and oxidant generating herbicides were used, and light was given at a much higher intensity 1000 μEin m^-2 s^-1 to better approach natural sunlight which is at 1200-1500 […].
Paraquat toxicity was measured 24 h after treatment and atrazine toxicity was measured 40 h after treatment.
Paraquat toxicity was measured 14 h after treatment.

[4] = tested on: Conyza bonariensis paraquat tolerant biotype; assay: Phytotoxicity measured as 14CO2 fixation 24 h after spraying; format: in vivo; conditions: for % photosynthesis inhibition: tolerant biotype
Method: (§6) Seeds of two biotypes of Conyza bonariensis (L.) Cronq. (synonym C. linifolia) were obtained from Egypt. The paraquat sensitive biotype was gathered near Alexendria and seeds of the resistant type from the Tahrir irrigation district. They were obtained from Dr. Martin Parham in England. Seeds were germinated in a growth room with a 14 h light period at 25° C. Plants were transferred out of doors 24 h before being sprayed. The phytotoxicity of three herbicides representative of the three different modes of generating active oxygen species known at present. Commercial paraquat (Gramoxone-ICI Plant Protection Ltd) was formulated with 0.1% (w/v) Tween-20 (a non-ionic surfactant) for spraying. The response to the range of 10^-5 M to 10^-2 M paraquat was measured by spraying two plants per concentration to run-off in the early morning. All plants were exposed to sunlight for at least 13 h (1300 μE.m^-2s^-1 photosynthetically active radiation (PAR) at mid day). Commercial acifluorfen (Blazer, Rohm, and Hass, Philadelphia, Pa., USA) to which was added 0.25% Tween-20 was sprayed to run-off. The response to spraying was measured as with paraquat 24 h after spraying. Commercial atrazine (Atranex 50 WP-Agan) was sprayed at various rates in 0.25% Tween 20 to run off. Fully expanded, 8 to 10 cm long leaves from plants in the rosette stage were used in all experiments. Phytotoxicity of acifluorfen and paraquat was measured as CO2 fixation 24 h later as follows: Detached leaves were placed on wet filter paper in a sealed chamber with 5μ Ci^14 C-sodium bicarbonate. Tartaric acid was remotely dripped on the sodium bicarbonate to release ^14 CO2. Leaves were illuminated with […] (PAR) for 30 min. Eighty percent acetone was added and the mixture put under strong light to photobleach pigments and evaporate the acetone. A scintillation mixture of Lumax:xylene (45:55) was added to the leaves and remaining water. The samples were counted and the data expressed as DPM.cm^-2. Area was measured with a planimeter from photocopies of the leaves made prior to photosynthesis measurements. Phytotoxicity of atrazine was measured as the elevated level of malonyldialdehyde in the tissue. Malonyldialdehyde (as measured with thiobarbituric acid according to Dodge and Gillham (Asp. Appl. Biol 11 97 (1986)) is a measurement of lipoxidation of unsaturated fatty acids, and provides an excellent estimation of damage by active oxygen species.

[5] = tested on: Conyza bonariensis paraquat sensitive biotype; assay: as above; format: in vivo; conditions: for % photosynthesis inhibition: sensitive biotype
Method: as §6

[6] = herbicide molar conc. 3 × 10^-4
[7] = herbicide molar conc. 3.2 × 10^-5

## CCN(CC)C(=S)[S-].[Na+] [DDC, Sodium diethyldithiocarbamate]
[1]; atrazine 0 μM, DDC 0.5% alone, high herbicide requiring biotype, scored one day after treatment
  visual ratings: 0.6
[2]; atrazine 0 μM, DDC 0.5% alone, scored one day after treatment
  visual ratings: 1.6
[3]; no herbicide, DDC 0.02% alone, atrazine series, 40 h
  % of control chlorophyll: 120 % of control
[3]; no herbicide, DDC 0.02% alone, paraquat series, 24 h
  % of control chlorophyll: 116 % of control

## C[n+]1ccc(-c2cc[n+](C)cc2)cc1 [paraquat, 1,1'-dimethyl-4-4'bipyridium ion]
[1]; 1 mM spray of paraquat, paraquat resistant biotype
  effect of paraquat spray: hardly affected
[1]; paraquat 1000 μM spray to run-off, DDC 0.75% W/V where added, high herbicide requiring biotype, scored 1 day after treatment
  visual rating: 0.9
[2]; paraquat 30 μM spray to run-off, DDC 0.75% W/V where added, scored 1 day after treatment
  visual rating: 1.8
[4]; Conyza bonariensis, 24 h, resistant biotype, read-out: concentration at which CO2 assimilation ceased
  IC100: 1000 µM
[4]; herbicide molar conc. 3 × 10^-3
  % photosynthesis inhibition: 100%
[4]; [6]
  % photosynthesis inhibition: 48%
[4]; [7]
  % photosynthesis inhibition: 0%
[4]; herbicide molar conc. 10^-3
  % photosynthesis inhibition: 97%
[4]; herbicide molar conc. 10^-4
  % photosynthesis inhibition: 0%
[4]; herbicide molar conc. 10^-5
  % photosynthesis inhibition: 0%
[5]; Conyza bonariensis, 24 h, wild biotype, read-out: concentration at which CO2 assimilation ceased
  IC100: 10 µM
[5]; [6]
  % photosynthesis inhibition: 100%
[5]; [7]
  % photosynthesis inhibition: 100%
[5]; herbicide molar conc. 10^-3
  % photosynthesis inhibition: 100%
[5]; herbicide molar conc. 10^-4
  % photosynthesis inhibition: 100%
[5]; herbicide molar conc. 10^-5, spray to run-off
  % photosynthesis inhibition: 95%
[3]; isolated cladophyll cells, 840 min
  chlorophyll remaining - % of control: 56 % of control
[3]; paraquat 10 μM, Tetraethylene-pentamine 0.025% where added, 14 h, 1000 μEin m^-2 s^-1
  chlorophyll remaining - % of control: 89 % of control
[3]; paraquat 20 μM, 4-Octyl-2-acetyl-phenol oxime 0.125% where added, 14 h, 1000 μEin m^-2 s^-1
  chlorophyll remaining - % of control: 74 % of control
[3]; paraquat 20 μM, Pyridine-2,6-dicarboxylic acid 0.005% where added, 14 h, 1000 μEin m^-2 s^-1
  chlorophyll remaining - % of control: 9 % of control
[3]; paraquat 20 μM, di-2-ethyl-hexyl-phosphoric acid 0.001% where added, 14 h, 1000 μEin m^-2 s^-1
  chlorophyll remaining - % of control: 72 % of control
[3]; paraquat 10^-6, DDC 0.02% where added, 24 h, 1 µM
  % of control chlorophyll: 107 % of control
